Laboratory results from PubChem BioAssay AID2060603 (Molecular Pharmacology Branch, DTP, NCI, 2025).
Where “and” joins values, the source holds several entries; their conditions need not be identical. Identical values can stand only once.

Test system: 422866-222-R5-J1-PDC spheroid viability
Experiment: Anticancer human tumor 422866-222-R5-J1-PDC patient-derived pancreatic adenocarcinoma cell line growth inhibition [CLK]
Details: spheroids with HUVEC and MSC; for viability, T/C: stronger effect = lower value
Text: A high-throughput screen of multi-cell type tumor spheroids was designed to identify active combinations of […] and targeted small molecules. Complex spheroids include a stromal component modeled by human endothelial cells (HUVEC) and fibroblasts modeled by human mesenchymal stem cells (MSCs). The concentration ranges selected for each drug and investigational agent were based upon clinically achievable concentrations if the clinical Cmax of the agent was known.
Compounds. The drugs and investigational agents: cirtuvivint (SM08502; NSC835563), CC-671 (NSC850746), vemurafenib (NSC761431), tapotoclax (NSC804041), sotorasib (NSC818433), adagrasib (NSC831453), MRTX-1133 (NSC836407), BAY2416964 (NSC825713), copanlisib (NSC816437), inavolisib (NSC800729), abemaciclib (NSC768073), osimertinib (NSC779217), entinostat (NSC756642), eltanexor (KPT-8602, NSC794443), venetoclax (NSC766270), ceralasertib (NSC777638), bortezomib (NSC756655), olaparib (NSC753686), talazoparib (NSC767125), alisertib (NSC759677), peposertib (NSC802822), gemcitabine (NSC613327), 5-fluorouracil (NSC19893), SN-38 (NSC673596), oxaliplatin (NSC266046), paclitaxel (NSC125973), and doxorubicin (NSC123127), were obtained from the National Cancer Institute (NCI) Developmental Therapeutics Program Chemical Repository. The FDA-approved anticancer drug set is available from the Developmental Therapeutics Program at https://dtp.cancer.gov/organization/dscb/obtaining/available plates.htm. […] The stock solutions were prepared in dimethyl sulfoxide (DMSO, Sigma-Aldrich, St. Louis, MO, cat. D2650), except for the platinum complexes which were prepared in saline (Quality Biological, Gaithersburg, MD, cat. 114-055-101), at 800-fold the tested concentration and stored at -70 degrees C prior to their use. All drugs and investigational agents were tested over a range starting from a high concentration at or near the clinical Cmax and decreasing in half-log increments. If the clinical Cmax for an agent had not been determined, the highest concentration tested was 10 microM.
Cell Culture. All cells were maintained in an incubator at 37 degrees C and 5% CO2 with 95% humidity. The PDC lines were cultured according to standard operating procedures established by the NCI PDMR. Briefly, all PDCs were thawed and cultured in Matrigel-coated flasks prepared with a working solution of 1X Ham's F-12 nutrient mix, without supplementation (Invitrogen, Waltham, MA, cat. 11765054), 100 U/mL penicillin-streptomycin (Invitrogen, cat. 15140122), and 2.5% Matrigel (Corning Inc., Corning, NY, cat. 354248) for the first three passages. The 947758-054-R-J2-PDC line was cultured in 6B/Colon 1A media, which includes advanced DMEM/F-12 (Thermo Fisher Scientific, cat. 12634028), 10 mM HEPES (Thermo Fisher Scientific, cat. 15630080), 1X GlutaMAX supplement (Thermo Fisher Scientific, cat. 35050061), 0.1 mg/mL primocin (InvivoGen, cat. ant-pm-2), 10% defined fetal bovine serum, heat inactivated (HyClone Laboratories Inc., cat. SH30070.03HI), 1.25 mM N-Acetyl-L-cysteine (Sigma-Aldrich, cat. A9165), 10 mM nicotinamide (Sigma-Aldrich, cat. N0636), 1X B-27 supplement (Thermo Fisher Scientific, cat. 17504044), 1X N-2 supplement (Thermo Fisher Scientific, cat. 17502048), and 10 microM Y-27632 dihydrochloride (Tocris Bioscience, cat. 1254). The 876862-298-R-J1-PDC was cultured in 6E media, which includes all 6B/Colon 1A media components plus 50% L-WRN conditioned media (ATCC, cat. CRL-3276), 50 ng/mL recombinant human EGF recombinant protein (hEGF; Thermo Fisher Scientific, cat. PHG0311), 10 ng/mL recombinant human fibroblast growth factor 10 (hGFG-10; PeproTech, cat. 100-26), 1 ng/mL recombinant human fibroblast growth factor 2 (hFGF-2; PeproTech, cat. 100-18B), and 1 µM prostaglandin E2 (PGE2; Tocris, cat. 2296). The 227483-062-R1-J1-PDC line was cultured in Panc media, containing all 6E components except hFGF-2, with the addition of 500 nM SB-431542 (Selleckchem, cat. S1067) and 10 nM gastrin (Tocris, cat. 3006). […]

[1] = curve of first compound, second compound 0.0316 µM
[2] = curve of first compound, second compound 0.1 µM
[3] = curve of first compound, second compound 0.316 µM
[4] = curve of first compound, second compound 1 µM
[5] = curve of first compound, second compound 3.16 µM
[6] = curve of first compound, second compound 10 µM
[7] = second compound 0.0316 µM, first compound 0.0316 µM
[8] = second compound 0.0316 µM, first compound 0.1 µM
[9] = second compound 0.0316 µM, first compound 0.316 µM
[10] = second compound 0.0316 µM, first compound 1 µM
[11] = second compound 0.0316 µM, first compound 3.16 µM
[12] = second compound 0.0316 µM, first compound 10 µM
[13] = second compound 0.1 µM, first compound 0.0316 µM
[14] = second compound 0.1 µM, first compound 0.1 µM
[15] = second compound 0.1 µM, first compound 0.316 µM
[16] = second compound 0.1 µM, first compound 1 µM
[17] = second compound 0.1 µM, first compound 3.16 µM
[18] = second compound 0.1 µM, first compound 10 µM
[19] = second compound 0.316 µM, first compound 0.0316 µM
[20] = second compound 0.316 µM, first compound 0.1 µM
[21] = second compound 0.316 µM, first compound 0.316 µM
[22] = second compound 0.316 µM, first compound 1 µM
[23] = second compound 0.316 µM, first compound 3.16 µM
[24] = second compound 0.316 µM, first compound 10 µM
[25] = second compound 1 µM, first compound 0.0316 µM
[26] = second compound 1 µM, first compound 0.1 µM
[27] = second compound 1 µM, first compound 0.316 µM
[28] = second compound 1 µM, first compound 1 µM
[29] = second compound 1 µM, first compound 3.16 µM
[30] = second compound 1 µM, first compound 10 µM
[31] = second compound 3.16 µM, first compound 0.0316 µM
[32] = second compound 3.16 µM, first compound 0.1 µM
[33] = second compound 3.16 µM, first compound 0.316 µM
[34] = second compound 3.16 µM, first compound 1 µM
[35] = second compound 3.16 µM, first compound 3.16 µM
[36] = second compound 3.16 µM, first compound 10 µM
[37] = second compound 10 µM, first compound 0.0316 µM
[38] = second compound 10 µM, first compound 0.1 µM
[39] = second compound 10 µM, first compound 0.316 µM
[40] = second compound 10 µM, first compound 1 µM
[41] = second compound 10 µM, first compound 3.16 µM
[42] = second compound 10 µM, first compound 10 µM
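Also: spheroids exposed to agents for seven days before readout.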

With `CCCS(=O)(=O)Nc1ccc(F)c(C(=O)c2c[nH]c3ncc(-c4ccc(Cl)cc4)cc23)c1F` + CN1CCN(c2cc(C(=O)Nc3cc4cc(-c5cnn(C)c5)ccc4cn3)ccn2)CC1 the IC50 [1] was over 10 µM, the IC50 [2] was over 10 µM and the IC50 [3] was over 10 µM. It also gave an IC50 [4] of under 0.0316 µM, an IC50 [5] of under 0.0316 µM and an IC50 [6] of under 0.0316 µM. It also gave a viability, T/C [7] of 111%, a viability, T/C [8] of 113% and a viability, T/C [9] of 136%. The viability, T/C [10] was 161%, the viability, T/C [11] was 179% and the viability, T/C [12] was 150%. For the same compound, the viability, T/C [13] was 108%, the viability, T/C [14] was 124% and the viability, T/C [15] was 137%. The viability, T/C [16] was 134%, the viability, T/C [17] was 168% and the viability, T/C [18] was 138%. The viability, T/C [19] was 95.9%, the viability, T/C [20] was 102% and the viability, T/C [21] was 98%. The viability, T/C [22] was 109%, the viability, T/C [23] was 133% and the viability, T/C [24] was 99.5%. The viability, T/C [25] was 31.4%, the viability, T/C [26] was 30.9% and the viability, T/C [27] was 32%. It also gave a viability, T/C [28] of 27.8%, a viability, T/C [29] of 31.4% and a viability, T/C [30] of 23.5%. It also gave a viability, T/C [31] of 8.19%, a viability, T/C [32] of 9.62% and a viability, T/C [33] of 11.2%. For the same compound, the viability, T/C [34] was 12.2%, the viability, T/C [35] was 16.5% and the viability, T/C [36] was 16.1%. For the same compound, the viability, T/C [37] was 1.72%, the viability, T/C [38] was 2.24% and the viability, T/C [39] was 2.24%. For the same compound, the viability, T/C [40] was 2.75%, the viability, T/C [41] was 2.94% and the viability, T/C [42] was 0.92%.
In the case of `O=C(c1cc(Cc2n[nH]c(=O)c3ccccc23)ccc1F)N1CCN(C(=O)C2CC2)CC1` + CN1CCN(c2cc(C(=O)Nc3cc4cc(-c5cnn(C)c5)ccc4cn3)ccn2)CC1, the IC50 [1] is reported as over 10 µM, the IC50 [2] is reported as over 10 µM and the IC50 [3] is reported as over 10 µM. It also gave an IC50 [4] of under 0.0316 µM, an IC50 [5] of under 0.0316 µM and an IC50 [6] of under 0.0316 µM. It also gave a viability, T/C [7] of 120%, a viability, T/C [8] of 112% and a viability, T/C [9] of 112%. The viability, T/C [10] was 125%, the viability, T/C [11] was 102% and the viability, T/C [12] was 84.1%. It also gave a viability, T/C [13] of 122%, a viability, T/C [14] of 105% and a viability, T/C [15] of 109%. It also gave a viability, T/C [16] of 98.7%, a viability, T/C [17] of 95% and a viability, T/C [18] of 88.4%. It also gave a viability, T/C [19] of 96.8%, a viability, T/C [20] of 82.2% and a viability, T/C [21] of 87.2%. For the same compound, the viability, T/C [22] was 85.5%, the viability, T/C [23] was 83.7% and the viability, T/C [24] was 74.8%. It also gave a viability, T/C [25] of 26.2%, a viability, T/C [26] of 24.4% and a viability, T/C [27] of 23.4%. It also gave a viability, T/C [28] of 22.4%, a viability, T/C [29] of 28.3% and a viability, T/C [30] of 25.2%. For the same compound, the viability, T/C [31] was 10.1%, the viability, T/C [32] was 11.2% and the viability, T/C [33] was 9.98%. For the same compound, the viability, T/C [34] was 8.62%, the viability, T/C [35] was 9.42% and the viability, T/C [36] was 12.3%. The viability, T/C [37] was 1.86%, the viability, T/C [38] was 1.82% and the viability, T/C [39] was 2.14%. It also gave a viability, T/C [40] of 2.42%, a viability, T/C [41] of 3.13% and a viability, T/C [42] of 2.42%.
`O=C(c1cc(Cc2n[nH]c(=O)c3ccccc23)ccc1F)N1CCN(C(=O)C2CC2)CC1` was tested, and the viability, T/C (compound 0.0316 µM) was 99% and 103%, the viability, T/C (compound 0.1 µM) was 94% and 98.7% and the viability, T/C (compound 0.316 µM) was 102% and 87.7%. The viability, T/C (compound 1 µM) was 102% and 105%, the viability, T/C (compound 3.16 µM) was 80.1% and 94% and the viability, T/C (compound 10 µM) was 81.2% and 78.8%. The IC50 (curve of compound) was over 10 µM.
